Values quoted from earlier work as cited in patent US6458376B1, “Nonaqueous fluorinated drug delivery suspensions” (Allergan, Inc., priority 1990, dated 2002).

Legend:
[1] = for Boiling point: ambient pressure
[2] = systemically administered

Row | Compound | Density @ 25° C. [1] | Kin. viscosity @ 25° C. [1] | Specific heat @ 25° C. [1] | Surface tension @ 25° C. [1] | Boiling point [1] | elimination half life [2] | elimination half-life (in words) [2]
1 | FC1(F)C(F)(F)C(F)(F)C2(F)C(F)(F)C(F)(F)C(F)(F)C(F)(F)C2(F)C1(F)F (centres unmarked) [PFD, Perfluoro(decahydronaphthalene)] | 1.929 gms/mL | 2.9 cst | 0.22 g-cal/gm | 19.3 dynes/cm | 142 °C | about 7 days | quite rapid
2 | O [Water, reference compound] | 1.000 gms/mL | 1.00 cst | 1.00 g-cal/gm | 72.0 dynes/cm |  |  | 
3 | FC1(F)C(F)(F)C(F)(F)C2(F)C(F)(C1(F)F)C(F)(F)C(F)(F)C1(F)C(F)(F)C(F)(F)C(F)(F)C(F)(F)C12F (centres unmarked) [PPP, perfluoroperhydrophenanthrene] | 2.016 gms/mL | 8.0 cst | 0.27 g-cal/gm | 21.6 dynes/cm | 215 °C |  | quite rapid
